Tests used:
[1] = test system: MMP2; assay: Gelatin zymography of MMP2 activity in LPS-activated scleral fibroblasts and ARPE-19 cells; type: cell-based; conditions: LPS + 100 μM atropine or LPS + 50 μM diacerein; 48 hours
Procedure: To facilitate subsequent analysis, 1×10^6 cells were seeded in 24-well plates for at least 12 hours. […] To measure the MMP-2/MMP-9 activities, samples were separated using 8% SDS-PAGE containing 0.1% gelatin.

[2] = test system: LEWIS rats, right eye induced myopia by FDM; assay: Refractive error and axial length in FDM myopia LEWIS rats (diclofenac); type: in vivo
Procedure: Four weeks LEWIS rats were used in this example. […] The refractive error and axial length of right eye were measured by refractometer within three weeks and recorded in Table 14.

[3] = test system: MFD-induced myopia in hamster; assay: Effect of resveratrol on MFD-induced myopia in hamster (refractometer); type: in vivo; conditions: for Diopter, left eye (mean ± SD) / Diopter, right myopic eye (mean ± SD): 21 days
Procedure: 0.1141 g resveratrol (purchased from Sigma Aldrich Co.) powder was dissolved in 6 ml of ethanol to obtain resveratrol liquid. 1.46 g β-cyclodextrin (purchased from Sigma Aldrich Co.) was dissolved in 2 ml of sterile water to obtain a β-cyclodextrin solution (as a co-solvent); resveratrol liquid and β cyclodextrin were mixed in mole number of 1:2 by slowly adding dropwise β cyclodextrin solution into resveratrol liquid to form a mixture. The mixture was frozen drained, and then 5 ml artificial tears were added (purchased from Alcon company) to be re-dissolved to obtain 100 mM resveratrol solution. Resveratrol solution can be diluted by fetal bovine serum medium or artificial tears for various embodiments.
The refractive powers of hamsters were measured before experiment by refractometer (in China Medical University Hospital Department of Ophthalmology). The hamsters were administered artificial tears (referred to as control group) or various concentrations (3 mM, 30 mM, 100 mM) of resveratrol (experimental group) for five hamsters each group. The right eyes of the hamsters of each group were stitched; after 21 days, the stitches were all removed and then the refractive powers of each hamster were measured.

[4] = test system: sclera and retina of hamster eyes; assay: Immunohistochemical analysis of COL1, TGF-β, TNF-α in resveratrol-treated hamster eyes; type: in vivo; conditions: 100 mM resveratrol
Procedure: […] Antigen retrieval was performed by boiling the slides in citrate buffer (pH 6.0); the sections were then stained with antibodies against IL-6, TNF-α, TGF-β, MMP2, c-Fos, NF-κB, and CHRM1 and 3. The EnVision System peroxidase kit (DAKO, Carpentaria, Calif., USA) was used to visualize immunoreactivity.

[5] = test system: monocyte chemoattractant protein-1 (MCP-1); assay: LPS-induced MCP-1 expression in human retinal pigment epithelial cells; type: cell-based; conditions: 50 μM resveratrol and 1 μg/ml LPS for 24 hours
Procedure: Human retinal pigment epithelial cells were as model cells under LPS stimulation for 24 hours to induce inflammation and monocyte chemoattractant protein-1 (MCP-1), and then resveratrol was administered to detect the effect of suppressing inflammatory response.

[6] = test system: Human retinal pigment epithelium; assay: Western blot of phosphorylated Akt and ERK after LPS in human retinal pigment epithelium; type: cell-based; conditions: 50 μM resveratrol pretreatment, then 500 ng/ml LPS
Procedure: Human retinal pigment epithelium was administrated 500 ng/ml LPS for 30 minutes to observe the expression of Akt and ERK.

[7] = test system: monocular form deprivation (MFD) Syrian hamster; assay: Refractive power in monocular form deprivation (MFD) hamster model, streak retinoscope; type: in vivo, golden Syrian hamsters; conditions: for Myopia in the non-MFD eye: LPS and PGN but not PBS treatment; for Refractive power, BL: left eye before MFD / Refractive power, BR: right eye before MFD: LPS or PGN group, baseline; for Refractive error FR-BR / Refractive error FL-BL: LPS or PGN; for Refractive error FR-BR: MFD right eye; for Refractive error FL-BL: non-MFD left eye
Procedure: In this study, a total of 160 golden Syrian hamsters aged 3 weeks, weighing 80 to 90 g, and 20 albino guinea pigs, aged 2 to 3 weeks, were used for experiments. All animals were kept in a 12-hour light/dark cycle. All procedures were approved by the Institutional Animal Care and Use Committee of China Medical University and were conducted in accordance with the guidelines of the Use of Animals in Ophthalmic and Vision Research. Hamsters were raised with a right eyelid fusion for 21 days. Myopia was induced in the guinea pigs by covering the right eye with a cloth attached to the skin at a distance of at least 1 cm from the eye. MFD was induced in the right eye (with the left eye serving as a control) of animals randomly assigned to treatment or control groups (n=10 animals each) receiving daily applications of drug or phosphate-buffered saline (PBS), respectively, to both eyes.
(§1) The RE (i.e., spherical-component RE, which is defined as the mean RE in horizontal and vertical meridians) was measured using a hand-held streak retinoscope. Animals were anesthetized with 10% ether in O2. Ocular refraction was evaluated at the start and end of the experiment. At the end of the study, animals were sacrificed through CO2 asphyxiation according to the guidelines of the Public Health Service, Office of Laboratory Animal Welfare, National Institutes of Health, and American Association of Veterinary Medicine. Eyes were enucleated using a razor blade on an ice plate under a surgical microscope (Topcon, Tokyo, Japan) by cutting perpendicularly to the anterior-posterior axis approximately 1 mm posterior to the ora serrata. The iris and ciliary body of the anterior segment of the eye were separated. Posterior sclera was excised using a 7-mm-diameter trephine. The axial lengths were determined through A-scan ultrasonography (PacScan 300 Plus, NY, USA). The average of 10 unique measurements was used.

[8] = test system: Syrian hamster; assay: Refractive power of hamsters without MFD after LPS or PGN; type: in vivo; conditions: for Refractive power, BL: left eye before treatment / Refractive power, BR: right eye before treatment: LPS or PGN group, baseline; for Refractive power, FL: left eye after treatment / Refractive power, FR: right eye after treatment / Refractive error FL-BL / Refractive error FR-BR: LPS or PGN; for Refractive power, FL: left eye after treatment / Refractive power, FR: right eye after treatment: 21 days; for Refractive error FL-BL: left eye; for Refractive error FR-BR: right eye
Procedure: as §1
To further test this possibility, LPS and PGN were applied to the eyes of hamsters without MFD.

[9] = test system: Retinal cell (R28); assay: Gene expression by real-time PCR in LPS-treated R28 retinal cells; type: cell-based, rat; conditions: R28; 100 ng/ml LPS for 4 hours
Procedure: (§2) R28 rat retinal epithelial cells were provided by Gail Seigel at the Ross Eye Institute (SUNY, Buffalo, N.Y., USA). The cells were cultured in Dulbecco's modified Eagle's medium (DMEM) with 10% fetal bovine serum (FBS) at 37° C. and 5% CO2, with medium replacement every 3 days to 4 days. Sclera were placed in a 60-mm culture dish in DMEM supplemented with 10% FBS to isolate primary scleral fibroblasts; those from fewer than three passages were used in experiments. […] Cell lysates were collected for quantitative (q)PCR to determine gene expression levels.
(§3) Total RNA was extracted using the RNeasy MiniKit (Qiagen, Valencia, Calif., USA), and 5 μg of RNA was reverse-transcribed to cDNA by using the Superscript First Strand Synthesis system (Invitrogen, Carlsbad, Calif., USA). Primers and probes used for qPCR were selected from the Universal Probes Library (Roche, West Sussex, UK). Transcript levels were normalized to those of glyceraldehyde 3-phosphate dehydrogenase in each sample.

[10] = test system: Sclera fibroblast; assay: Gene expression by real-time PCR in LPS-treated primary scleral fibroblasts; type: cell-based, hamster; conditions: sclera fibroblast; 100 ng/ml LPS for 4 hours
Procedure: as §2, §3

[11] = test system: sclera and retina of hamster eyes; assay: Immunohistochemistry of hamster eyes (sclera, retina); type: in vivo; conditions: for c-Fos and NF-κB expression / MMP2 and TGF-β expression / TGF-β and MMP2 expression: LPS or PGN; for IL-10 and TNF-α levels: LPS or PGN treatment; for MMP2 and TGF-β expression: MFD hamsters; for TGF-β and MMP2 expression: hamsters without MFD
Procedure: Antigen retrieval was performed by boiling the slides in citrate buffer (pH 6.0); the sections were then stained with antibodies against IL-6, TNF-α, TGF-β, MMP2, c-Fos, NF-κB, and CHRM1 and 3. The EnVision System peroxidase kit (DAKO, Carpentaria, Calif., USA) was used to visualize immunoreactivity.

[12] = test system: monocular form deprivation (MFD) Syrian hamster; assay: Refractive power in monocular form deprivation (MFD) hamster model, streak retinoscope; type: in vivo, golden Syrian hamsters; conditions: LPS or 500 ng/mL PGN every second day for 21 days
[13] = 3 × diclofenac (3 mg/ml solution), right eye, three weeks, mean ± standard error

CC(=O)Oc1cccc2c1C(=O)c1c(OC(C)=O)cc(C(=O)O)cc1C2=O [diacerein]
MMP2 activities in cells activated by LPS [1]: decreased

O=C(O)Cc1ccccc1Nc1c(Cl)cccc1Cl [diclofenac]
Inhibitory effect on myopia, comparison of concentrations ([2]; 3 mg/ml vs 6 mg/ml): better in the concentration of 3 mg/ml than in 6 mg/ml
Δ Axial length [2, 13]: 1.04 ± 0.39 mm
Δ Refractive error [2, 13]: 5.36 ± 4.05 D
Δ Axial length ([2]; 6 × diclofenac (6 mg/ml solution), right eye, three weeks, mean ± standard error): 1.24 ± 0.55 mm
Effect on myopia process ([2]; diclofenac solution 3 mg/ml and 6 mg/ml): significant inhibitory effect

Oc1ccc(C=Cc2cc(O)cc(O)c2)cc1 [resveratrol]
Diopter, left eye (mean ± SD) ([3]; 3 mM resveratrol): −0.17 ± 0.24 Diopter
Diopter, right myopic eye (mean ± SD) ([3]; 3 mM resveratrol): −2.42 ± 1.30 Diopter
Diopter, left eye (mean ± SD) ([3]; 30 mM resveratrol): −0.63 ± 0.41 Diopter
Diopter, right myopic eye (mean ± SD) ([3]; 30 mM resveratrol): −2.46 ± 0.65 Diopter
Diopter, left eye (mean ± SD) ([3]; 100 mM resveratrol): −0.25 ± 1.53 Diopter
Diopter, right myopic eye (mean ± SD) ([3]; 100 mM resveratrol): −1.13 ± 1.47 Diopter
Inhibition of myopia, comparison of concentrations ([3]; 100 mM vs 3 mM and 30 mM): most effective
TNF-α expression in the retina [4]: follows the same trend as TGF-β
Collagen I protein expression in the sclera ([4]; stitched right eye): recovered
TGF-β expression in the retina ([4]; stitched right eye): reduction effect
Expression of MCP-1 [5]: decreasing
Expression of phosphorylated Akt and ERK [6]: decrease

lipopolysaccharide [LPS]
Myopia in the non-MFD eye [7]: induced
Refractive power, BL: left eye before MFD [7]: 11.92 ± 0.56 D
Refractive power, BR: right eye before MFD [7]: 12.30 ± 0.48 D
Refractive error FR-BR [7]: −5.9 ± 0.54 D
Refractive error FL-BL [7]: −4.13 ± 0.9 D
Refractive power, BL: left eye before treatment [8]: 12.28 ± 0.97 D
Refractive power, BR: right eye before treatment [8]: 12.25 ± 0.57 D
Refractive power, FL: left eye after treatment [8]: 8.33±0.96 D
Refractive power, FR: right eye after treatment [8]: 8.56±0.42 D
Refractive error FL-BL [8]: −3.95 ± 0.97 D
Refractive error FR-BR [8]: −3.69 ± 0.57 D
Chrm 1 gene expression level [9]: 1.39 ± 0.13
Chrm 2 gene expression level [9]: 0.45 ± 0.23
Chrm 3 gene expression level [9]: 1.27 ± 0.2
Chrm 4 gene expression level [9]: 0.94 ± 0.15
Chrm5 gene expression level [9]: 0.75 ± 0.21
Fos gene expression level [9]: 1.39 ± 0.11
IL1b gene expression level [9]: 4.3 ± 0.25
IL10 gene expression level [9]: 0.56 ± 0.19
IL-6 gene expression level [9]: 2.63 ± 0.15
MMP2 gene expression level [9]: 1.32 ± 0.13
NFkB gene expression level [9]: 1.13 ± 0.11
Tgfb1 gene expression level [9]: 1.18 ± 0.12
Tnfa gene expression level [9]: 1.56 ± 0.17
Chrm 1 gene expression level [10]: 1.49 ± 0.18
Chrm 2 gene expression level [10]: 1.48 ± 0.17
Chrm 3 gene expression level [10]: 1.58 ± 0.15
Chrm 4 gene expression level [10]: 1.07 ± 0.23
Chrm5 gene expression level [10]: 0.93 ± 0.15
Fos gene expression level [10]: 1.00 ± 0.11
IL1b gene expression level [10]: 2.84 ± 0.21
IL10 gene expression level [10]: 0.56 ± 0.19
IL-6 gene expression level [10]: 3.02 ± 0.16
MMP2 gene expression level [10]: 1.79 ± 0.17
NFkB gene expression level [10]: 4.50 ± 0.27
Tgfb1 gene expression level [10]: 2.15 ± 0.23
Tnfa gene expression level [10]: 1.49 ± 0.15
c-Fos and NF-κB expression [11]: stimulated
IL-10 and TNF-α levels [11]: increased
MMP2 and TGF-β expression [11]: upregulation
TGF-β and MMP2 expression [11]: upregulation
Refractive power, FL: left eye after MFD [12]: 7.79±0.88 D
Refractive power, FR: right eye after MFD (occluded eye) [12]: 6.44±0.18 D

peptidoglycan [PGN]
Myopia in the non-MFD eye [7]: induced
Refractive power, BL: left eye before MFD [7]: 11.73 ± 0.25 D
Refractive power, BR: right eye before MFD [7]: 11.48 ± 0.49 D
Refractive error FR-BR [7]: −4.90 ± 0.83 D
Refractive error FL-BL [7]: −5.03 ± 0.43 D
Refractive power, BL: left eye before treatment [8]: 12.22 ± 0.35 D
Refractive power, BR: right eye before treatment [8]: 12.17 ± 1.04 D
Refractive power, FL: left eye after treatment [8]: 8.67±0.63 D
Refractive power, FR: right eye after treatment [8]: 9.14±1.21 D
Refractive error FL-BL [8]: −3.55 ± 0.35 D
Refractive error FR-BR [8]: −3.03 ± 1.04 D
c-Fos and NF-κB expression [11]: stimulated
IL-10 and TNF-α levels [11]: increased
MMP2 and TGF-β expression [11]: upregulation
TGF-β and MMP2 expression [11]: upregulation
Refractive power, FL: left eye after MFD [12]: 6.78±0.63 D
Refractive power, FR: right eye after MFD (occluded eye) [12]: 6.47±0.39 D
